The values that follow come from paper PMC5384777, “Three new C-27-carboxylated-lupane-triterpenoid derivatives from Potentilla discolor Bunge and their in vitro antitumor activities” (PLoS ONE, 2017).

For data set [1], the system named is HepG-2 cells. The data set can be described thus: Hoechst 33258 staining. Particulars: 15 and 30 μM, 24 h. Format: cell-based, human. As to the method: HepG-2 cells grown on a sterile cover slip in 6-well plates were treated with Compound 1 for 24 h. The culture medium containing Compound was removed, and the cells were fixed in 4% paraformaldehyde for 10 min. After two PBS washes, the cells were stained with 0.5 mL of Hoechst 33258 (Beyotime, Haimen, China) for 5 min and again two PBS washes. The stained nuclei were viewed using a Nikon ECLIPSETE2000-S fluorescence microscope (OLYMPUS Co., Japan) under 350 nm excitation and 460 nm emissions.

The test system of another data set is Bax. The data set can be described thus: Western blot, Bax. Type of data set: cell-based, human. As to conditions: HepG-2, 15 and 30 μM, 24 h, compared with control. As to the method:
(§1) HepG-2 cells were collected after treatments with Compound 1 (0, 15 and 30 μM) for 24 h and then lysed in ice-cold RIPA buffer (1×PBS, 1% NP-40, 0.5% sodium deoxycholate and 0.1% SDS) which containing 100 μg/mL PMSF, 5 μg/mL Aprotinin, 5 μg/mL Leupeptin, 5 μg/mL Pepstatin and 100 μg/mL NaF. After centrifugation at 12,000 rpm for 10 min, the protein in the supernatant was quantified by the Bradford method using Multimode varioscan instrument (Thermo Fischer Scientifics). 30 μg protein per lane was applied in 12% SDS polyacrylamide gel. After electrophoresis, the protein was transferred to a polyvinylidine difluoride (PVDF) membrane (Amersham Biosciences). The membrane was blocked in TBST containing 5% blocking powder (Santacruz) at room temperature for 2 h. The membrane was washed with TBST for 5 min, and primary antibody (Bax, Bcl-2, cytochrome c, caspase-9, -3) was added and incubated at 4°C overnight (O/N). After three washes in TBST, the membrane was cultivated with corresponding horseradish peroxidase-labeled secondary antibody (1:20000) (Santa Cruz) at room temperature for 1 h. Membranes were rinsed with TBST for three times, 15 min each, and the protein blots were visualized with chemiluminescence reagent (Thermo Fischer Scientifics Ltd.). The X-ray films were developed with developer and fixed with fixer solution.

The next data set can be described thus: in vitro. As to conditions: human. Format: cell-based. As to the method:
(§2) The cytotoxic effects of Compounds 1–3 were estimated in vitro against HepG-2, MCF-7 and T-84 tumor cell lines by Cell Counting Kit-8 assay. Briefly, the cells were seeded into 96-well plates in triplicate at an initial number of 5,000 cells per well and cultured at 37°C, 5% CO2 for 24h, then treated with 0, 15, 20, 25, 30 μM of samples for another 24h. Ten microliters of the kit reagent was added to each well, and 2 h after all plates were scanned by a microplate reader (Thermo Fisher Scientific) at 450 nm. Cell cytotoxicity was calculated on the basis of absorbency.

Data set [2] deals with HepG-2 cells. The data set is described as follows: Annexin V-FITC/propidium iodide apoptosis analysis. Type of data set: cell-based, human. Particulars: 24 h. As to the method: The method for apoptosis analysis referred to the literature. Apoptosis was discriminated with the annexin V-FITC/propidium iodide test. Cells were seeded at 3 × 10^5/well in 10% FBS-DMEM into 6-well plates, and treated with Compound 1 with various concentrations. The cells were washed twice with cold Phosphate Buffered Saline (PBS) and then resuspended in 1 × Binding Buffer (0.1 M Hepes/NaOH (pH 7.4), 1.4 M NaCl, 25 mM CaCl2) at a concentration of 1 × 10^6 cells/mL. 100 μL of the solution (1 × 10^5 cells) was transferred to a 5 mL culture tube, and 5 μL of FITC Annexin V (BD, Pharmingen) and 5 μL of propidium iodide (PI) were added to each tube. The cells were gently vortexed and incubated at 25°C for 15 min in the dark. Then 200 μL of PBS was added to each tube. Analysis was performed with the system software (Cell Quest; BD Biosciences). The percentage of cells positive for PI and/or Annexin V-FITC was reported inside the quadrants. Lower left quadrant, viable cells (annexin V-/PI-); lower right quadrant, early apoptotic cells (annexin V+/PI-); upper right quadrant, late apoptotic cells (annexin V+/PI+); upper left quadrant, necrotic cells (annexin V-/PI+).

Data set [3] concerns HepG-2 cells. The data set is described as follows: Intracellular ROS assay (DCFH-DA). Format: cell-based, human. As to conditions: 24 h, control 10.6%. As for the experimental part:
HepG-2 cells were seeded into 6-well plates for 24 h and subjected to various treatments. Then, the cells were cultured in a […] medium solution containing […] DCFH-DA (Beyotime, Haimen, China) at 37°C for 30 min in dark, and then with 3 times PBS washes. Cellular fluorescence was quantified under Nikon ECLIPSETE2000-S fluorescence microscope at 485 nm excitation and 538 nm emission.

The subject of a further data set is MCF-7. The data set can be described thus: CCK-8 cytotoxicity assay, MCF-7. Type of data set: cell-based. As to conditions: Homo sapiens, read-out: Cytotoxicity (IC50) MCF-7. As for the experimental part:
as §2
On the technique in general: Formazan colour is commonly taken as a measure of viable cells.

A further data set deals with cytochrome c. The data set can be described thus: Western blot, cytochrome c. Format: cell-based, human. As to conditions: HepG-2, 0, 15 and 30 μM, 24 h. As for the experimental part: as §1
The subject of data set [4] is HepG-2 cells. The data set is described as follows: Mitochondrial membrane potential (JC-1) staining. Type of data set: cell-based, human. As to conditions: 15 μM, 24 h.
Another data set relates to caspase-3. The data set can be described thus: Western blot, caspase-3. Particulars: HepG-2, 15 and 30 μM, 24 h. Format: cell-based, human. As to the method:
as §1
Background: A western blot detects proteins with antibodies after separation by electrophoresis.

In a further data set the test system is Bcl-2. The data set is described as follows: Western blot, Bcl-2. Format: cell-based, human. Particulars: HepG-2, 15 and 30 μM, 24 h, compared with control. As for the experimental part: as §1
A further data set concerns caspase-9. The data set is described as follows: Western blot, caspase-9. As to conditions: HepG-2, 15 and 30 μM, 24 h. Format: cell-based, human. As for the experimental part:
as §1

In data set [5] the test system is HepG-2 cells. The data set can be described thus: AO/EB staining. Format: cell-based, human. As to conditions: 15 and 30 μM, 24 h. As to the method: HepG-2 cells were seeded on a sterile cover slip in 6-well tissue culture plates at a concentration of 5 ×10^4 cell/mL in a volume of 2 mL. Following incubation, the medium was removed and replaced with fresh medium plus 10% fetal bovine serum and supplemented with concentrations of Compound 1 for 24 h. After the treatment period, the cover slip with monolayer cells was inverted on a grass slide with 10 μL of AO/EB stain ([…]). Fluorescence was read on a Nikon ECLIPSETE2000-S fluorescence microscope.

In another data set the test system is T-84. The data set is described as follows: CCK-8 cytotoxicity assay, T-84. Type of data set: cell-based. Particulars: Homo sapiens, read-out: Cytotoxicity (IC50) T-84. As to the method:
as §2

The test system of the next data set is HepG-2. The data set can be described thus: CCK-8 cytotoxicity assay, HepG-2. Format: cell-based, human. As to conditions: for IC50: Homo sapiens, read-out: Cytotoxicity (IC50) HepG-2. As for the experimental part: as §2

Where “and” joins values, the source holds several entries; their conditions need not be identical. Equal entries are not always repeated. Where two headings read alike, the source gives them in different places. A value given as a limit tells only on which side of the number the result lay.

What is called IC50 is the concentration at which inhibition is half-maximal. Broadly, the melting point is the temperature, or range, at which the solid turns liquid.

For `CC(C=O)C1CCC2(C)CCC3(C(=O)O)C(CCC4C5(C)CCC(O)C(C)(C)C5CCC43C)C12` (stereo not drawn) [Compound 1, 3α-hydroxy-19α-hydrogen-29-aldehyde-27-lupanoic acid], the melting point is 200 to 201 °C and 201 to 202 °C. For the same molecule, the “apoptotic cells by Hoechst 33258 staining” value in the data set with HepG-2 cells [1] was “apoptotic cells increased gradually in a dose-dependent manner”. The Bax level result in the data set with Bax was “significant increase”. The viability at 24 h, 35 µM in the data set “in vitro” was more than 90%. Further, in the data set on HepG-2 cells [2] (15 μM), the “early apoptosis rate (annexin V+/PI-, LR)” value (“early apoptosis rate” for short) is 6.96% and the “late apoptosis rate (annexin V+/PI+, UR)” value is given as 4.27%. Further, the “late apoptosis rate (annexin V+/PI+, UR)” value in the data set with HepG-2 cells [2] (20 μM) stood at 10.61%. In the data set with HepG-2 cells [2] (25 μM), the “early apoptosis rate” value stood at 20.05% and the “late apoptosis rate (annexin V+/PI+, UR)” value is 14.30%. In addition, in the data set on HepG-2 cells [2] (30 μM), the “early apoptosis rate” value was 23.69% and the “late apoptosis rate (annexin V+/PI+, UR)” value is reported as 22.93%. Moreover, the “early apoptosis rate” value in the data set with HepG-2 cells [2] is 16.14%. In addition, the viability at 15 µM in the data set with HepG-2 cells [2] (Homo sapiens, HepG2, 15 μM, read-out: viable cells (annexin V-/PI-, LL)) amounted to 88.7%. The viability at 20 µM with HepG-2 cells [2] (Homo sapiens, HepG2, 20 μM, read-out: viable cells (annexin V-/PI-, LL)) was found to be 72.9%. Further, the viability at 25 µM in the data set on HepG-2 cells [2] (Homo sapiens, HepG2, 25 μM, read-out: viable cells (annexin V-/PI-, LL)) was 64.8%. Further, in the data set with HepG-2 cells [2] (Homo sapiens, HepG2, 30 μM, read-out: viable cells (annexin V-/PI-, LL)), the viability at 30 µM was determined as 52%. For the same molecule, in the data set on HepG-2 cells [3] (15 μM), the ROS level worked out at 23.5%. For the same molecule, the ROS level in the data set on HepG-2 cells [3] (30 μM) came to 46.8%. Also, the IC50 in the data set with MCF-7 (MCF7, 24 h) worked out at 30.8 ± 1.88 µM. For the same molecule, the “cytochrome c level in the cytosol” value with cytochrome c is reported as “gradually improved”. Besides, in the data set with HepG-2 cells [4], the “ΔΨm reduced to, of control” value was found to be 69.1%. Moreover, the “cleavage of caspase-3” value in the data set with caspase-3 is “significantly induced cleavage”. Also, in the data set with Bcl-2, the “expression of Bcl-2” value is recorded as “inhibition on the expression”. Also, the “cleavage of caspase-9” value in the data set on caspase-9 is given as “significantly induced cleavage”. In the data set with HepG-2 cells [5], the “apoptosis by AO/EB staining” value is recorded as “able to induce apoptosis”. The IC50 in the data set with T-84 (T84, 24 h) is 27.9 ± 1.96 µM. The “survival rate of HepG-2” value in the data set with HepG-2 (35 μM) was 9.50%. Also, the IC50 in the data set on HepG-2 (HepG2, 24 h) turned out to be 17.8 ± 1.21 µM.

As for `CC(C=O)[C@@H]1CC[C@]2(C)CC[C@]3(C(=O)O)C(CCC4[C@@]5(C)CC[C@@H](O)C(C)(C)C5CC[C@]43C)C12` (stereo partly drawn) [Compound 2, 3α-hydroxy-19β-hydrogen-29-aldehyde-27-lupanoic acid], the IC50 was found to be 31 ± 1.83 µM in the data set on MCF-7 (MCF7, 24 h); 27.9 ± 0.99 µM with T-84 (T84, 24 h); 18.2 ± 1.94 µM with HepG-2 (HepG2, 24 h).

`O=C1CCC[C@@H]2[C@H]3CCCN4CCC[C@@H](CN12)[C@@H]34` [Matrine, reference compound]: the IC50 in the data set on MCF-7 (MCF7, CCK-8, 24 h treatment, n = 3) was 35.5 ± 2.92 µM; with T-84 (T84, CCK-8, 24 h treatment, n = 3) it was 32.8 ± 2.95 µM; in the data set on HepG-2 (HepG2, CCK-8, 24 h treatment, n = 3), 30.9 ± 2.28 µM.

In the case of `CC(=O)OC1CCC2(C)C(CCC3(C)C2CCC2C4C(C(C)C=O)CCC4(C)CCC23C(=O)O)C1(C)C` (stereo not drawn) [Compound 3, 3α-acetyl-19α-hydrogen-29-aldehyde-27-lupanoic acid], the melting point lay within 200 to 201 °C. The IC50 in the data set with MCF-7 (MCF7, 24 h) turned out to be 35.4 ± 1.52 µM. Also, in the data set with T-84 (T84, 24 h), the IC50 stood at 40.6 ± 3.64 µM. In the data set on HepG-2 (HepG2, 24 h), the concentration for half-maximal inhibition (IC50) is 25.3 ± 1.87 µM.
